According to the Kinase Knowledgebase extract (Sharma et al. 2016):

Target: PIK3CA (human) (UniProt P42336)
Assay: Assessment of PIK3CA Kinase Activity

PIK3CA (human), sequence (P42336 whole entry, looked up): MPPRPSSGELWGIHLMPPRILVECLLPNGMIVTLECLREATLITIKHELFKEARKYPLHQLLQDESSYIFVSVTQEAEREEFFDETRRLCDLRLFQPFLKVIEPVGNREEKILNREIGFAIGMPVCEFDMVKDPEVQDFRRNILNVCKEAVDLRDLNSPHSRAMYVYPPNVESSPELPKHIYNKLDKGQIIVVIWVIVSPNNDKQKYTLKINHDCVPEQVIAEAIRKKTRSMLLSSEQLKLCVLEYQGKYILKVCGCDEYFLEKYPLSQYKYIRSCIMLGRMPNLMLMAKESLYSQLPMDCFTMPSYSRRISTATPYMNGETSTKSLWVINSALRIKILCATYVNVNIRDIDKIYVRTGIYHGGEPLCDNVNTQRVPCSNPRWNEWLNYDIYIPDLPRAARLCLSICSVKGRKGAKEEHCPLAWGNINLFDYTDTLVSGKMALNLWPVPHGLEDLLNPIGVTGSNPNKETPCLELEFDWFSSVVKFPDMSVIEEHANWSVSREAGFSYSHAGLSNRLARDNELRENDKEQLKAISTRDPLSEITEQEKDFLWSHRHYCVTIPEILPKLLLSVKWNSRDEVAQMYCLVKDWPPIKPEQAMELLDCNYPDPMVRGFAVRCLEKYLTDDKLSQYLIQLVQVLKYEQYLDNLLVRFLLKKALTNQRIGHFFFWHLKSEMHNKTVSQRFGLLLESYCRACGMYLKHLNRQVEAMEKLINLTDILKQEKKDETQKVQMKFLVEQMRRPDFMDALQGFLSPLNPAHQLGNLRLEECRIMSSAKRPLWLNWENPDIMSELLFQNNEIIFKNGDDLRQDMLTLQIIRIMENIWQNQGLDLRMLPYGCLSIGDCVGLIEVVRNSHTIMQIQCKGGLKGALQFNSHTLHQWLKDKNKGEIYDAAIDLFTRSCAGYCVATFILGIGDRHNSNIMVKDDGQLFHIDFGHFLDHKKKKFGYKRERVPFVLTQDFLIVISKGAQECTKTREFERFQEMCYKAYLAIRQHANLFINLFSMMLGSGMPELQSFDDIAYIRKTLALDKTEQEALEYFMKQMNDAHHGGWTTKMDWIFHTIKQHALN

SMILES | IC50
COc1cc(-c2ccc3ncc(NC(=O)Nc4ccncc4)nc3n2)ccc1O | < 1 µM
CCNC(=S)Nc1ccc2ncc(Nc3cc(OC)c(OC)c(OC)c3)nc2n1 | < 1 µM
COc1cc(-c2ccc3ncc(NC(=O)NCCCl)nc3n2)ccc1O | < 1 µM
CNC(=S)Nc1cnc2ccc(-c3ccc(O)c(OC)c3)nc2n1 | < 1 µM
COc1cc(Nc2cnc3ccc(NC(=S)NC4CCCC4)nc3n2)cc(OC)c1OC | < 1 µM
COc1cc(-c2ccc3ncc(NC(=O)NC4CCCC4)nc3n2)ccc1O | < 1 µM
CCNC(=O)Nc1ccc2ncc(Nc3cccc(OC(F)F)c3)nc2n1 | < 5 µM
O=C(Nc1cnc2ccc(-c3cc(Cl)c(O)c(Cl)c3)nc2n1)NC1CCCC1 | < 1 µM
COc1cc(-c2ccc3ncc(NC(=O)Nc4cccs4)nc3n2)ccc1O | < 1 µM
CNC(=O)Nc1cnc2ccc(-c3ccc(OC)c(OC)c3)nc2n1 | < 5 µM
COc1cc(-c2ccc3ncc(NC(=O)NC4CCN(C(=O)C(F)(F)F)CC4)nc3n2)ccc1O | < 1 µM
CCNC(=S)Nc1ccc2ncc(Nc3ccc(OC)c(O)c3)nc2n1 | < 1 µM

The remaining lines, values ahead:

IC50 | SMILES
< 5 µM | CCNC(=O)Nc1ccc2ncc(-c3ccc(OC(C)=O)c(OC)c3)nc2n1
< 5 µM | CCNC(=O)Nc1cnc2ccc(-c3cc(C)c(O)c(C)c3)nc2n1
< 1 µM | CCNC(=O)Nc1ccc2ncc(Nc3ccc(O)c(C(=O)OC)c3)nc2n1
< 0.5 µM | CCNC(=O)Nc1cnc2ccc(-c3ccc(O)c(OC)c3)nc2n1
< 5 µM | CCNC(=O)Nc1ccc2ncc(-c3ccc(OC)c(O)c3)nc2n1
< 5 µM | CC(C)(C)NC(=O)Nc1cnc2ccc(-c3cc(Cl)c(O)c(Cl)c3)nc2n1
< 5 µM | CCNC(=O)Nc1ccc2ncc(Nc3cccc(O)c3)nc2n1
< 5 µM | CCNC(=O)Nc1cnc2ccc(-c3ccc(O)c(Cl)c3)nc2n1
< 5 µM | CCNC(=O)Nc1ccc2ncc(Nc3ccccc3O)nc2n1
